In patent US20170000749A1, “Methods for Treating Cognitive Disorders Using Inhibitors of Histone Deacetylase” (Forum Pharmaceuticals, Inc., priority 2008, published 2017):
Where two headings read alike, the source gives them in different places.

Target: one or more of HDAC-1, HDAC-2, HDAC-3, HDAC-4, HDAC-5, HDAC-6, HDAC-7, HDAC-8, HDAC-9, HDAC-10 and HDAC-11
Experiment: Inhibition of Histone Deacetylase Enzymatic Activity (Boc-Lys(Ac)-AMC substrate, Fluor-de-Lys developer)
Format: biochemical
Settings: read-out: HDAC Inhibition (IC50 μM) HDAC Enzyme
Method: The following protocol is used to assay the compounds of the disclosure.
The mixture is pre-incubated for 5 minutes at room temperature. The reaction is started by bringing the temperature to 37° C. and adding 16 μl substrate. Total reaction volume is 50 μl.
In the Tables 8, 9 and 10, A≦0.05 μM; 0.05 μM<B≦0.1 μM; 0.1 μM<C≦1 μM; and 1 μM<D≦10 μM.

| IC50 (Table 10) [µM] | IC50 (Table 8) [µM] | SMILES |
| --- | --- | --- |
| 1 to 10 |  | O=C(NO)c1ccc(OCCN2C(=O)c3ccccc3Oc3ccccc32)cc1Cl |
| 0.05 to 0.1 |  | O=C(NO)c1ccc(OCCN2C(=O)c3ccccc3Oc3ccccc32)cc1F |
| 0.1 to 1 |  | O=C(C=C1c2ccccc2C=Cc2ccccc21)NO |
| 1 to 10 |  | O=C(C=C1c2ccccc2CCc2ccccc21)NO |
| < 0.05 |  | O=C(NO)c1cnc(NC2c3ccccc3CCc3ccccc32)nc1 |
| 0.1 to 1 |  | O=C(NO)c1cn2c(n1)sc1ccccc12 |
| 0.1 to 1 |  | O=C(NO)c1ccc(COC2c3ccccc3CCc3ccccc32)cc1 |
| 0.1 to 1 |  | O=C(NO)c1cccc(COC2c3ccccc3CCc3ccccc32)c1 |
| 0.1 to 1 |  | O=C(NO)c1cccc(CNC2c3ccccc3CCc3ccccc32)c1 |
| 0.1 to 1 |  | O=C(NO)c1cnc(N2C[C@H]3C[C@@]3(c3cccc(C(F)(F)F)c3)C2)nc1 |
| 0.1 to 1 |  | O=C(NO)c1cnc(N2C[C@H]3C[C@@]3(c3ccc(C(F)(F)F)cc3)C2)nc1 |
|  | 0.1 to 1 | CN1CCN(C2=Nc3cc(C(=O)NO)ccc3Oc3ccccc32)CC1 |
| 0.1 to 1 |  | O=C(NO)c1cnc(N2C[C@H]3C[C@@]3(c3ccc(Cl)c(Cl)c3)C2)nc1 [2-((1R,5S)-1-(3,4-dichlorophenyl)-3-azabicyclo[3.1.0]hexan-3-yl)-N-hydroxypyrimidine-5-carboxamide] |
| 0.1 to 1 |  | O=C(NO)c1cnc(N2C[C@@H]3C[C@]3(c3ccc(Cl)c(Cl)c3)C2)nc1 [2-((1S,5R)-1-(3,4-dichlorophenyl)-3-azabicyclo[3.1.0]hexan-3-yl)-N-hydroxypyrimidine-5-carboxamide] |
| 0.1 to 1 |  | O=C(NO)c1cccc(CN2c3ccccc3Sc3ccccc32)c1 [3-((10H-phenothiazin-10-yl)methyl)-N-hydroxybenzamide] |
| 1 to 10 |  | O=C(NO)c1cccc(CN2c3ccccc3Oc3ccccc32)c1 [3-((10H-phenoxazin-10-yl)methyl)-N-hydroxybenzamide] |
| 1 to 10 |  | O=C(NO)c1cccc(CN(c2ccccc2)c2ccccc2)c1 [3-((diphenylamino)methyl)-N-hydroxybenzamide] |
| 1 to 10 |  | O=C(CCCN1C(=O)c2cccnc2N(C2CC2)c2ccccc21)NO [4-(11-cyclopropyl-5-oxo-5H-benzo[b]pyrido[2,3-e][1,4]diazepin-6(11H)-yl)-N-hydroxybutanamide] |
| 0.1 to 1 |  | O=C(NO)c1ccc(Cn2c3c(c4ccccc42)CCCCCC3)cc1 [4-((6,7,8,9,10,11-hexahydro-5H-cycloocta[b]indol-5-yl)methyl)-N-hydroxybenzamide] |
| 0.1 to 1 |  | O=C(NO)c1ccc(CNC2c3ccccc3COc3ccccc32)cc1 (stereo not shown) [4-((6,11-dihydrodibenzo[b,e]oxepin-11-ylamino)methyl)-N-hydroxybenzamide] |
| < 0.05 |  | O=C(NO)c1ccc(CN2c3ccccc3CCc3ccccc32)cc1 [4-((10,11-dihydro-5H-dibenzo[b,f]azepin-5-yl)methyl)-N-hydroxybenzamide] |
| < 0.05 |  | O=C(NO)c1ccc(CNC(c2ccccc2)c2ccccc2)cc1 [4-((benzhydrylamino)methyl)-N-hydroxybenzamide] |
| 0.1 to 1 |  | O=C(NO)c1ccc(CN(c2ccccc2)c2ccccc2)cc1 [4-((diphenylamino)methyl)-N-hydroxybenzamide] |
| < 0.05 |  | O=C(NO)c1ccc(CN2Cc3ccccc3Oc3ccccc32)cc1 [4-(dibenzo[b,f][1,4]oxazepin-10(11H)-ylmethyl)-N-hydroxybenzamide] |
| 0.1 to 1 |  | O=C(NO)c1cnc(N2CCC[C@H]2c2nc3ccccc3[nH]2)nc1 [(S)-2-(2-(1H-benzo[d]imidazol-2-yl)pyrrolidin-1-yl)-N-hydroxypyrimidine-5-carboxamide] |
| 1 to 10 |  | O=C(CN1c2ccccc2C=Cc2ccccc21)NO [(Z)-2-(5H-dibenzo[b,f]azepin-5-yl)-N-hydroxyacetamide] |
| 0.1 to 1 |  | O=C(NO)c1cccc(CN2c3ccccc3C=Cc3ccccc32)c1 [(Z)-3-((5H-dibenzo[b,f]azepin-5-yl)methyl)-N-hydroxybenzamide] |

| SMILES | IC50 (Table 10) [µM] | IC50 (Table 8) [µM] |
| --- | --- | --- |
| O=C(NO)c1cnc(NC(c2ccc(F)cc2)c2ccc(F)cc2)nc1 [2-(bis(4-fluorophenyl)methylamino)-N-hydroxypyrimidine-5-carboxamide] | < 0.05 |  |
